The IC50 is the concentration at which inhibition is half-maximal. By EC50 is commonly meant the concentration that produces a half-maximal response. Lower therefore signals a more potent agent. The term Tmax denotes the time from dosing to the highest level. For orientation: MRT means a mean duration of stay, worked out from the concentration-time curve.

SMILES strings stand for the structures. Read-outs that look alike come from different tables or passages of the source.

One series deals with 5-HT2A receptor (Homo sapiens, UniProt P28223). The experiment in a line: Calcium ion mobility in cells stably expressing 5-HT2A receptors (Flp-In-CHO-5HT2A, FLIPR). The class given is cell-based. The arrangement: expressed in transfected cells. The note with it: Flp-In-CHO-5HT2A stable pool, 5HT stimulation.
Chain of 5-HT2A receptor (P28223 whole entry): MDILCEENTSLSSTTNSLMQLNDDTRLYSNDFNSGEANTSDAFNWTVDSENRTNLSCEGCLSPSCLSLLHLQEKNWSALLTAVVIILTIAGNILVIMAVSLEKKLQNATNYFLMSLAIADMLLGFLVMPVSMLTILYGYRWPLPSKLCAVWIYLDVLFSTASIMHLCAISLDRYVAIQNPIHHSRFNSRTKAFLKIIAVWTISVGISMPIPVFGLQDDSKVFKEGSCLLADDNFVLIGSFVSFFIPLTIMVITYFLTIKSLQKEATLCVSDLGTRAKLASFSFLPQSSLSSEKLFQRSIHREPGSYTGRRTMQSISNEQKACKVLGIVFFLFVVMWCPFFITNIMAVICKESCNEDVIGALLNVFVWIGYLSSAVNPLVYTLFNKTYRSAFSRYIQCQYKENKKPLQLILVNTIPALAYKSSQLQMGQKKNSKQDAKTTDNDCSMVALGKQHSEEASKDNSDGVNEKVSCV
The target of another series is T1, D3 receptor (Homo sapiens, UniProt P35462).
T1 construct: expressed in transfected cells
T1 sequence (P35462 whole entry): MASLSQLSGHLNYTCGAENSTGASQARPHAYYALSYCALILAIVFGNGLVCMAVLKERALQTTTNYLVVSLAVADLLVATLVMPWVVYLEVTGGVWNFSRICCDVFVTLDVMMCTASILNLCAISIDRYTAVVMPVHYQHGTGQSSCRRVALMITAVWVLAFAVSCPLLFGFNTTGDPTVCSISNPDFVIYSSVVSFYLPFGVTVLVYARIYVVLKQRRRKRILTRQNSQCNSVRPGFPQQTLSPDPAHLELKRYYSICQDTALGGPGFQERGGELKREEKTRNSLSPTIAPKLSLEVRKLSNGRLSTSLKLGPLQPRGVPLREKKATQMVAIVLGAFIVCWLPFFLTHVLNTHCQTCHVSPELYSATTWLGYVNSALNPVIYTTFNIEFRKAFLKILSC
The experiment in a line: cAMP content in cells stably expressing D3 receptors (CHO-D3, forskolin, HTRF). In kind it is cell-based. A general note: TR-FRET usually uses a lanthanide donor and a delayed reading to cut background.

Series [1] is described as follows: Pharmacokinetic assay in Balb/c mice (plasma and brain tissue). In kind it is in vivo. The note with it: male, mouse, po, p.o. 5 mg/kg; for AUC(0-t): read-out: Area under curve AUC0-t; for AUC(0-inf): read-out: Area under curve AUC0-∞; for Tmax: read-out: Peak time tmax; for Cmax: read-out: Plasma concentration Cmax; for MRT: read-out: Average residence time MRT; for half-life: read-out: Half life t1/2 (converted). As to the method: Balb/c mice were used as test animals. The pharmacokinetic behavior in mouse body (plasma and brain tissue) of the compounds of Examples of the present invention was studied at an oral administration dose of 5 mg/kg.
Compounds of the Examples of the present invention, prepared by the applicant.
Male Balb/c mice (12 mice per group), purchased from Shanghai Jiesijie Laboratory Animal Co., LTD, with Certificate No.: SCXK (Shanghai) 2013-0006 N0.311620400001794.
The test compound was dissolved in 0.5% CMC-Na (1% Tween80) by sonication to formulate a clear solution or homogeneous suspension.
After an overnight fast, male Balb/c mice (12 mice per group) were administered p.o. with the test compound at an administration dose of 5 mg/kg and an administration volume of 10 mL/kg.
0.2 mL of blood was taken from the heart of the mouse before administration and at 1, 2, 4, 8 and 24 hours after administration, and the mice were sacrificed with CO2. The samples were stored in EDTA-K2 tubes, and centrifuged for 6 minutes at 4°C, 6000 rpm to separate the plasma. The plasma samples were stored at -80°C. Whole brain tissue was taken out, weighed, placed in a 2 mL centrifuge tube, and stored at -80°C.
• 1) 160 µL of acetonitrile was added to 40 µL of the plasma sample for precipitation, and then the mixture was centrifuged for 5 to 20 minutes at 3500 × g. • 2) 90 µL of acetonitrile containing internal standard (100 ng/mL) was added to 30 µL of the plasma and brain homogenate sample for precipitation, and then the mixture was centrifuged for 8 minutes at 13000 rpm. • 3) 70 µL of water was added to 70 µL of the treated supernatant and mixed by vortex for 10 minutes. 20 µL of the supernatant was taken to analyze the concentration of the test compound by LC/MS/MS. LC/MS/MS analytical instrument: AB Sciex API 4000 Qtrap.
• Liquid chromatography condition: Shimadzu LC-20AD pump • Chromatographic column: Agilent ZORBAX XDB-C18 (50×2.1 mm, 3.5 µm); Mobile phase: Eluent A was 0.1% formic acid in water, and Eluent B was acetonitrile • Flow rate: 0.4 mL/min • Elution time: 0-4.0 minutes, the eluent is as follows:
The main parameters of pharmacokinetics were calculated by WinNonlin 6.1. Table 17: Experimental results of pharmacokinetic assay in mice

In the case of `O=C(NC1CC(CCN2CCN(c3cccc(Cl)c3Cl)CC2)C1)c1ncco1` (stereo not shown) [Example 12, N-(3-(2-(4-(2,3-Dichlorophenyl)piperazin-1-yl)ethyl)cyclobutyl)oxazole-2-carboxamide], the half-maximal inhibitory concentration (IC50) at 5-HT2A receptor came to 5.2 nM. Also, at D3 receptor, the response was half-maximal at 1.7 nM (EC50). In addition, in series [1] (Brain), the AUC(0-t) was determined as 4830 ng·h/mL, the AUC(0-inf) was 4880 ng·h/mL, the Tmax turned out to be 1 h and the Cmax amounted to 1200 ng/mL. Moreover, in series [1] (Plasma), the AUC(0-t) came out at 1040 ng·h/mL, the AUC(0-inf) came to 1230 ng·h/mL, the MRT is 3.9 h and the half-life was 2.8 h. In series [1] (Plasma), the Tmax was 0.5 h and the Cmax is 391 ng/mL.
Turning to `O=C(N[C@H]1C[C@@H](CCN2CCN(c3cccc(Cl)c3Cl)CC2)C1)c1ncco1` [Example 12B, N-(Cis-3-(2-(4-(2,3-dichlorophenyl)piperazin-1-yl)ethyl)cyclobutyl)oxazole-2-carbo xamide], the IC50 on 5-HT2A receptor turned out to be 11.6 nM. For the same molecule, the midpoint of the response on D3 receptor, the EC50, lay at 0.7 nM. Also, in series [1] (Brain), the AUC(0-t) stood at 5200 ng·h/mL, the Tmax is 1 h and the Cmax amounted to 1870 ng/mL. In series [1] (Plasma), the AUC(0-t) worked out at 1620 ng·h/mL, the AUC(0-inf) amounted to 1710 ng·h/mL, the MRT turned out to be 2.4 h and the half-life is 1.8 h. Moreover, in series [1] (Plasma), the Tmax is 0.5 h and the Cmax was determined as 715 ng/mL.
As to `O=C(N[C@H]1C[C@H](CCN2CCN(c3cccc(Cl)c3Cl)CC2)C1)c1ncco1` [Example 12A, N-(Trans-3-(2-(4-(2,3-dichlorophenyl)piperazin-1-yl)ethyl)cyclobutyl)oxazole-2-car boxamide], at 5-HT2A receptor, the IC50 is 2.21 nM. In addition, the concentration for a half-maximal effect (EC50) at D3 receptor came to 0.6 nM. For the same molecule, in series [1] (Brain), the AUC(0-t) stood at 8130 ng·h/mL, the Tmax is 1 h and the Cmax amounted to 1760 ng/mL. Further, in series [1] (Plasma), the AUC(0-t) worked out at 1840 ng·h/mL, the AUC(0-inf) worked out at 1970 ng·h/mL, the MRT was found to be 3.1 h and the half-life is 1.9 h. In addition, in series [1] (Plasma), the Tmax worked out at 0.5 h and the Cmax came out at 673 ng/mL.
For `O=C(N[C@H]1C[C@H](CCN2CCN(c3cccc(Cl)c3Cl)CC2)C1)C1(O)CC1` [Example 6A, N-(Trans-3-(2-(4-(2,3-dichlorophenyl)piperazin-1-yl)ethyl)cyclobutyl)-1-hydroxycy clopropane-1-carboxamide], at 5-HT2A receptor, the IC50 is 3.07 nM. The molecule further gave an EC50 on D3 receptor of 0.6 nM. In series [1] (Brain), the AUC(0-t) was determined as 1080 ng·h/mL, the Tmax turned out to be 1 h and the Cmax was found to be 321 ng/mL. Also, in series [1] (Plasma), the AUC(0-t) was 1420 ng·h/mL, the AUC(0-inf) came out at 1440 ng·h/mL, the MRT came out at 1.8 h and the half-life was 1.3 h. Besides, in series [1] (Plasma), the Tmax was determined as 0.5 h and the Cmax worked out at 745 ng/mL.
`O=C(N[C@H]1C[C@H](CCN2CCN(c3cccc(Cl)c3Cl)CC2)C1)c1cccc2ncccc12` [Example 19A, N-(Trans-3-(2-(4-(2,3-dichlorophenyl)piperazin-1-yl)ethyl)cyclobutyl)quinoline-5-c arboxamide]: the IC50 on 5-HT2A receptor was found to be 7.67 nM. Also, a half-maximal response on D3 receptor (EC50) required 1.6 nM. Besides, in series [1] (Brain), the AUC(0-t) was 1240 ng·h/mL, the Tmax stood at 1 h and the Cmax was 372 ng/mL. In series [1] (Plasma), the AUC(0-t) was determined as 456 ng·h/mL, the AUC(0-inf) was 471 ng·h/mL, the MRT is 1.8 h and the half-life is 1.7 h. In series [1] (Plasma), the Tmax is 0.5 h and the Cmax was determined as 349 ng/mL.
On to `O=C(N[C@H]1C[C@H](CCN2CCN(c3cccc(Cl)c3Cl)CC2)C1)c1nccs1` [Example 7A, N-(Trans-3-(2-(4-(2,3-dichlorophenyl)piperazin-1-yl)ethyl)cyclobutyl)thiazole-2-car boxamide], for which, on 5-HT2A receptor, the IC50 was 2.74 nM. Moreover, at D3 receptor, the concentration for a half-maximal effect (EC50) came out at 1 nM. Also, in series [1] (Brain), the AUC(0-t) is 1350 ng·h/mL, the Tmax came out at 1 h and the Cmax worked out at 179 ng/mL. In addition, in series [1] (Plasma), the AUC(0-t) amounted to 395 ng·h/mL, the AUC(0-inf) is 501 ng·h/mL, the MRT turned out to be 5.3 h and the half-life is 3.7 h. In addition, in series [1] (Plasma), the Tmax was determined as 1 h and the Cmax is 102 ng/mL.
